Consider 102 compounds from PubChem BioAssay AID1996.

Values after ≈ are worked out from the molar mass of the structure shown.

For this series the following is noted: buffer; pH 7.4; 200.0 µM.
Turning to `O=C(Nc1ccccc1N1CCOCC1)c1ccc([N+](=O)[O-])s1`, the solubility (kinetic) (as a rule, the concentration staying in solution when a stock, usually in DMSO, is diluted into the medium) was 4.6 µg/mL (≈ 13.8 µM).
Take `Cc1c(C)n(CCC(=O)O)c2ccccc12`: the solubility (kinetic) was greater than 32.6 µg/mL.
`CCOc1c(C)cc(S(=O)(=O)NCc2ccccn2)c(C)c1C` displayed a solubility (kinetic) greater than 50.2 µg/mL.
`COc1ccccc1/C=C/CN1CCSCC1` returned a kinetic solubility greater than 37.4 µg/mL.
Regarding `Cc1csc(NC(=O)CSc2ccccc2F)n1`, the solubility (kinetic) was greater than 42.4 µg/mL.
As for `O=C(NCc1ccco1)/C(=C/c1ccc(Cl)cc1)NC(=O)c1ccco1`, the figure is 4 µg/mL (≈ 10.8 µM); as for `Cc1ccc(-c2nc(Nc3ccc(O)cc3)c3ccccc3n2)cc1`, 0.9 µg/mL (≈ 2.75 µM); as for `COC(=O)c1ccc(NS(=O)(=O)c2ccc(S(=O)(=O)N3CCOCC3)cc2)cc1`, greater than 66.1 µg/mL.
In the case of `CN(C)CCCNC(=O)N1c2ccccc2C=Cc2ccccc21.Cl`, the kinetic solubility is greater than 53.7 µg/mL.
In the case of `C/C=C/C=C/C(=O)OCC(=O)Nc1ccc(Cl)cc1` it was 6.2 µg/mL (≈ 22.2 µM); in that of `CCCC1CC(C(=O)Nc2ccccc2)C(=O)O1` (configuration not stated), 33 µg/mL (≈ 133 µM).
`O=C1NC(=O)/C(=C\c2ccc(OCc3ccccc3)cc2)S1` showed a solubility (kinetic) of less than 0.7 µg/mL.
Regarding `COc1ccc(S(=O)(=O)N2CCN(C)CC2)c(C)c1`, the kinetic solubility is greater than 42.7 µg/mL.
In the case of `CC(=O)Nc1cccc(NC(=O)Cc2ccc3ccccc3c2)c1`, the solubility (kinetic) was determined as 0.9 µg/mL (≈ 2.83 µM).
As for `CSc1ccc(CN(C)C(=O)C(c2ccccc2)c2ccccc2)cc1`, the figure is 7.7 µg/mL (≈ 21.3 µM); as for `Cc1cccc(C)c1NC(=O)CN1C(=O)NC(C)(C2CC2)C1=O` (configuration not stated), greater than 47.3 µg/mL; as for `CC(C)c1nc2ccccc2n1CC(O)COC1CCCCC1` (configuration not stated), greater than 47.5 µg/mL.
In turn, `N#Cc1cc2ccccc2nc1SCC(=O)NC1CC1` yielded a solubility (kinetic) of 3.2 µg/mL (≈ 11.3 µM).
In turn, `COC(=O)N1CCN(CCc2ccccc2)CC1` registered a solubility (kinetic) greater than 37.2 µg/mL.
Regarding `Cc1ccc(C(=O)Oc2ccc(C(=S)N3CCOCC3)cc2)cc1`, the solubility (kinetic) came out at 2.5 µg/mL (≈ 7.32 µM).
On to `CC1=C([N+](=O)[O-])C(c2ccccc2C(F)(F)F)NC(=O)N1C` (configuration not stated), for which the solubility (kinetic) was greater than 47.3 µg/mL.
In the case of `CC(=O)Nc1ccc(S(=O)(=O)NCCC(=O)Nc2cc(C)ccn2)cc1` it was greater than 56.5 µg/mL; in that of `Cc1ccc(S(=O)(=O)NCc2cn3ccccc3n2)c(C)c1`, 8.9 µg/mL (≈ 28.2 µM).
`N#CCc1ccc(Oc2ncccn2)cc1` returned a solubility (kinetic) greater than 31.7 µg/mL.
On to `O=C(O)CSc1nc2c(c(C(F)(F)F)n1)CCCC2`, for which the kinetic solubility is greater than 43.8 µg/mL.
The compound `Cc1ccc(NC(=O)CC2(CC(=O)O)CCCC2)cc1` registered a solubility (kinetic) greater than 41.3 µg/mL.
Take `CC(=O)c1c(C)[nH]c(C(=O)COC(=O)c2ccc(Cl)nc2)c1C`: the solubility (kinetic) is 3.9 µg/mL (≈ 11.7 µM).
Compound `O=C1N/C(=C/c2cccs2)C(=O)N1Cc1ccc(F)cc1` gave a solubility (kinetic) of less than 0.3 µg/mL.
In the case of `Br.CCn1c2c(c(=N)c3c1CCC3)CCCC2` it was greater than 44.6 µg/mL; in that of `CN(C(=S)Nc1ccc(Oc2ccccc2)cc1)c1ccc(O)cc1`, greater than 52.6 µg/mL; in that of `Cc1nc2ccccc2cc1C(=O)NCc1ccc(F)cc1`, 20.6 µg/mL (≈ 70 µM).
As for `CC(C(=O)NC(C)(C)C)N1C(=O)c2cccc3cccc(c23)C1=O` (configuration not stated), the figure is 40.2 µg/mL (≈ 124 µM).
Regarding `CC(C)CNC(=O)COCc1cc(-c2ccc3c(c2)OCO3)on1`, the solubility (kinetic) was greater than 49.9 µg/mL.
In turn, `O=C(CN1C(=O)NC(CCc2ccccc2)C1=O)Nc1ccccc1C(F)(F)F` (configuration not stated) returned a kinetic solubility of 5.2 µg/mL (≈ 12.8 µM).
The compound `Cc1ccc(NC(=O)Cc2cc(C(=O)O)c3ccccc3n2)c(C)c1` gave a solubility (kinetic) of 2.5 µg/mL (≈ 7.48 µM). This solubility kinetic is about 2.1-fold lower than that of the compound before.
`O=C(O)Cc1ccc(NC(=O)Nc2ccc3c(c2)OCO3)cc1` displayed a solubility (kinetic) greater than 47.1 µg/mL.
Turning to `COC(=O)[C@H](Cc1ccccc1)NC(=O)N1CCCCCC1`, the kinetic solubility was greater than 45.7 µg/mL.
For `O=C(O)c1nc(NCCc2ccccc2)ncc1Cl`, the kinetic solubility was greater than 41.7 µg/mL.
As for `Cc1ccc2c(c1)C(c1ccccc1)N(C(=O)CC(C)C)CC(=O)N2` (configuration not stated), the figure is greater than 50.5 µg/mL; as for `Fc1ccc(CNc2ccccn2)cc1`, 24.3 µg/mL (≈ 120 µM).
`Cc1cccc(C)c1NC(=O)CN(C)C(=O)CCC(=O)N1CCOCC1` displayed a solubility (kinetic) greater than 54.2 µg/mL.
As for `Nc1c2c(nc3cccc(Cl)c13)N(c1ccccc1)CC2`, the figure is 0.9 µg/mL (≈ 3.04 µM); as for `CCN(CC)CCNC(=O)c1cc(S(C)(=O)=O)ccc1OC.Cl`, 52.5 µg/mL.
The compound `CC(C)C(=O)Nc1cc(C(F)(F)F)ccc1-n1ccnc1` came in with a kinetic solubility of 38.8 µg/mL (≈ 131 µM).
As for `O=C(Nc1ccccc1)c1ccccc1OS(=O)(=O)c1ccccc1`, the figure is 48 µg/mL (≈ 136 µM); as for `O=C(OCc1ccccc1)c1cccnc1Cl`, 32.5 µg/mL (≈ 131 µM); as for `O=[N+]([O-])c1ccc(Sc2n[nH]c(-c3ccncc3)n2)nc1`, greater than 45 µg/mL.
In turn, `CCOc1ccc(S(=O)(=O)N2CCCCC2)cc1NC(=O)c1cccnc1OCC` had a solubility (kinetic) of 1.2 µg/mL (≈ 2.77 µM).
The compound `Cc1ccc(C(=O)N2CCN(c3cccc(C)c3C)CC2)o1` had a kinetic solubility of 31.8 µg/mL (≈ 107 µM).
For `N#CCCN(Cc1cccs1)C(=O)Nc1ccccc1`, the kinetic solubility came to 41.1 µg/mL (≈ 144 µM).
Consider `C=CCn1c(O)c(C(C)=NCCc2c[nH]c3ccccc23)c(=O)[nH]c1=O`, for which the solubility (kinetic) worked out at 33.5 µg/mL (≈ 95.1 µM).
With `O=C(NCCNC(=O)c1ccc(Cl)cc1Cl)c1ccco1`, the kinetic solubility turned out to be 30.7 µg/mL (≈ 93.8 µM). The solubility kinetic values of the last two compounds are within 1.5-fold of each other.
`COc1ccccc1CNC(=O)COC(=O)c1cc2ccccc2o1` showed a kinetic solubility of 3.8 µg/mL (≈ 11.2 µM).
As to `O=C(NCCCn1ccnc1)c1ccc(Cl)cc1`, the kinetic solubility is greater than 39.6 µg/mL.
As for `Cc1c(CCOC(=O)c2ccc(Cl)cc2Cl)sc[n+]1CC(=O)c1ccc(Br)cc1.[Br-]`, the figure is 40.6 µg/mL.
Take `Cc1ccc(NC(=O)Nc2ccc3c(c2)CCC3)c(C)c1`: the solubility (kinetic) was less than 0.3 µg/mL.
As to `Cc1ccc(CN2CCN(Cc3ccc(O)cc3)CC2CCO)o1` (configuration not stated), the kinetic solubility was greater than 49.6 µg/mL.
`CCOC(=O)c1c(-c2ccccc2)oc2ccc(OCC(N)=O)cc12` showed a kinetic solubility of less than 0.7 µg/mL.
In turn, `Cc1ccc(NC(=O)Cc2c[nH]c3ccccc23)cc1` had a kinetic solubility of 3.2 µg/mL (≈ 12.1 µM).
Compound `O=c1c2c([N+](=O)[O-])cc([N+](=O)[O-])cc2nc2ccccn12` showed a solubility (kinetic) of 3.2 µg/mL (≈ 11.2 µM).
Compound `COc1nc(NC(=O)c2ccc(F)cc2)nc(OC)c1-c1ccccc1` had a kinetic solubility of 6 µg/mL (≈ 17 µM).
In the case of `COc1ccc(-c2cc(C(=O)N(C)Cc3nc4ccccc4c(=O)[nH]3)c3ccccc3n2)cc1OC` it was 13.2 µg/mL (≈ 27.5 µM); in that of `O=C(O)/C=C/C(=O)NCC1CCC(CNC(=O)/C=C/C(=O)O)CC1` (configuration not stated), greater than 50.8 µg/mL.
`CCOC(=O)/C=C1\SCC(=O)N1CC(=O)Nc1cccc(F)c1` returned a solubility (kinetic) of 17.1 µg/mL (≈ 50.5 µM).
For `CN(C)c1cccc(C(=O)N(Cc2ccccc2)Cc2ccccc2)c1`, the solubility (kinetic) came to 4.2 µg/mL (≈ 12.2 µM).
In the case of `COc1ccc(/C=C/C(=O)ONC2=NCCCCC2)cc1OC`, the kinetic solubility is greater than 47.8 µg/mL.
With `CCCCON1C(=O)c2cccc3cccc(c23)C1=O`, the kinetic solubility was found to be 8.8 µg/mL (≈ 32.7 µM).
As to `COc1cc(OC)c(C(=O)Nc2ccncc2)cc1OC`, the solubility (kinetic) worked out at 42.6 µg/mL (≈ 148 µM).
In the case of `O=Cc1cccn1-c1nccc(-c2ccco2)n1`, the kinetic solubility is 24.7 µg/mL (≈ 103 µM).
The compound `CC(=O)c1ccc(OCC(=O)Nc2ccccc2N2CCCC2)cc1` showed a kinetic solubility of 44.4 µg/mL (≈ 131 µM).
In the case of `CCOC(=O)C1CCN(C(=O)CC2(CC(=O)O)CCCC2)CC1` it was 45.5 µg/mL (≈ 140 µM); in that of `COc1cc(Cl)c(C)cc1NC(=O)CC1CCCC1`, 2 µg/mL (≈ 7.1 µM).
In the case of `N#C/C(=C\c1ccc(O)c([N+](=O)[O-])c1)C(=O)NCc1ccccc1`, the kinetic solubility was 46.2 µg/mL (≈ 143 µM).
As for `C=CCC1(C#N)C(=S)NC(C)=C(C(=O)OCC)C1c1ccccc1` (configuration not stated), the kinetic solubility is greater than 51.1 µg/mL.
In turn, `CCNc1nc(SC(C)C(=O)Nc2ccccc2)nc(N(C)C)n1` (configuration not stated) yielded a kinetic solubility of 3.4 µg/mL (≈ 9.81 µM).
In the case of `O=C(c1ccc(Cl)cc1[N+](=O)[O-])N1CCc2ccccc2C1` it was 6.1 µg/mL (≈ 19.3 µM); in that of `Cc1ccc(Cn2ccsc2=NC(=O)COC(=O)c2ccc(O)cc2O)cc1`, 2.7 µg/mL (≈ 6.78 µM); in that of `O=C(COc1cccc(F)c1)Nc1nc(-c2cccnc2)cs1`, 7.3 µg/mL (≈ 22.2 µM).
Compound `O=C(/C=C/c1ccc2c(c1)OCO2)c1ccccn1` showed a solubility (kinetic) of 4.2 µg/mL (≈ 16.6 µM). This solubility kinetic is about 1.7-fold lower than that of the compound before.
In the case of `COc1ccccc1CNC(=O)CN1C(=O)NC2(CCCCCCC2)C1=O` it was greater than 56 µg/mL; in that of `C=CCOc1ccc(C(=O)Nc2ccc3c(c2)n(C)c(=O)n3C)cc1`, 11.4 µg/mL (≈ 33.8 µM); in that of `Cn1cccc1C(=O)OCc1cc(-c2ccco2)on1`, 13.8 µg/mL (≈ 50.7 µM).
In turn, `COc1cccc(/C=N/c2nc3ccccc3n2C)c1O` came in with a kinetic solubility of 23.1 µg/mL (≈ 82.1 µM).
`COc1cc2c(cc1OC)-c1cc(Nc3ccc(C)cc3)nc(=O)n1CC2`: the solubility (kinetic) was 1.9 µg/mL (≈ 5.23 µM).
In the case of `CC(C)(C)/C(O)=C/c1nc2ccccc2oc1=O` it was 36.8 µg/mL (≈ 150 µM).
As for `COc1ccc([N+](=O)[O-])c(S(=O)(=O)c2ccccc2)n1`, the figure is 5.6 µg/mL (≈ 19 µM); as for `CC1Cc2cc(/C=C3/SC(=S)N(C)C3=O)ccc2O1` (configuration not stated), less than 0.6 µg/mL.
Compound `NC(=O)c1cc(S(=O)(=O)Nc2cccc(Cl)c2)cs1` had a solubility (kinetic) greater than 47.5 µg/mL.
The compound `Cc1ccc(SCCC(=O)Nc2nccs2)cc1` displayed a solubility (kinetic) of 2.5 µg/mL (≈ 8.98 µM).
On to `Cn1c(=O)c2c(nc(N3CCOCC3)n2C/C=C/c2ccccc2)n(C)c1=O`, for which the kinetic solubility was determined as 51.9 µg/mL (≈ 136 µM).
In the case of `O=C(Nc1cc([N+](=O)[O-])ccc1F)c1ccc2ccccc2c1` it was less than 0.3 µg/mL.
`COc1ccc(CNC(=O)COC(=O)c2cccn2C)cc1` gave a kinetic solubility greater than 45.3 µg/mL.
In the case of `CC(C)c1ccc(S(=O)(=O)Nc2ccc3c(c2)OCO3)cc1` it was 26.4 µg/mL (≈ 82.7 µM); in that of `Cn1c(=O)c2c(ncn2CC(=O)OCCCC(=O)c2ccc(Br)cc2)n(C)c1=O`, 28 µg/mL (≈ 60.4 µM); in that of `NC(=O)C1CCN(C(=O)Cc2ccsc2)CC1`, greater than 37.8 µg/mL.
Compound `CC1CC(=O)Nc2ccccc2N1C(=O)CSc1ccc2ccccc2n1` (configuration not stated) returned a solubility (kinetic) greater than 56.6 µg/mL.
As to `CCOc1ccc(C(=O)N2CCc3ccccc32)cc1`, the kinetic solubility is 13.3 µg/mL (≈ 49.8 µM).
Turning to `S=C(Nc1ccc(Cl)cc1)Nc1ccc2c(c1)OCCO2`, the solubility (kinetic) is 8.9 µg/mL (≈ 27.7 µM). This solubility kinetic and that of the compound before are within 1.5-fold of each other.
Consider `COc1ccccc1Nc1nc(N)nc(CCl)n1`, for which the solubility (kinetic) amounted to 35.4 µg/mL (≈ 133 µM).
For the compound `Cc1ccc(Cl)cc1NC(C#N)c1ccccc1` (configuration not stated), the kinetic solubility came to 6.5 µg/mL (≈ 25.3 µM).
Turning to `COc1ccccc1C(=O)NCCC(=O)NCC1CCCCC1`, the solubility (kinetic) came out at 47.4 µg/mL (≈ 149 µM).
As for `CCCS(=O)(=O)N1CCCC(C(=O)Oc2ccc(C)c(C)c2)C1` (configuration not stated), the figure is less than 0.7 µg/mL.
